The target of assay [1] is T1, maize endosperm AGPase, large subunit variant D161G (numbering of SEQ ID NO: 20) (Zea mays, UniProt P55241+Q84PF5, D161G).
T1 sequence (P55241 46-516 D161G): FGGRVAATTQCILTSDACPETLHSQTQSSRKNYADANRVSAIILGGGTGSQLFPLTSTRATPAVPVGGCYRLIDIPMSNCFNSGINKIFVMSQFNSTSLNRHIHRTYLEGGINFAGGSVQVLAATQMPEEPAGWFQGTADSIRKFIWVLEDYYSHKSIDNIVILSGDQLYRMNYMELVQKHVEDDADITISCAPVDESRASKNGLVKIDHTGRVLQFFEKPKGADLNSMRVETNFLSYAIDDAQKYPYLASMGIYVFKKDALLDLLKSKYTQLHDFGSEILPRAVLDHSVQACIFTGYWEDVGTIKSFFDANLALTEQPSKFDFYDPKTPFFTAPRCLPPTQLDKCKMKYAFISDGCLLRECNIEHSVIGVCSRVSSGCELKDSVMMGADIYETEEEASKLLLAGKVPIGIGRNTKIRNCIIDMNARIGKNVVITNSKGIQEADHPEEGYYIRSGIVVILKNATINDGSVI
T1 sequence (Q84PF5 1-474): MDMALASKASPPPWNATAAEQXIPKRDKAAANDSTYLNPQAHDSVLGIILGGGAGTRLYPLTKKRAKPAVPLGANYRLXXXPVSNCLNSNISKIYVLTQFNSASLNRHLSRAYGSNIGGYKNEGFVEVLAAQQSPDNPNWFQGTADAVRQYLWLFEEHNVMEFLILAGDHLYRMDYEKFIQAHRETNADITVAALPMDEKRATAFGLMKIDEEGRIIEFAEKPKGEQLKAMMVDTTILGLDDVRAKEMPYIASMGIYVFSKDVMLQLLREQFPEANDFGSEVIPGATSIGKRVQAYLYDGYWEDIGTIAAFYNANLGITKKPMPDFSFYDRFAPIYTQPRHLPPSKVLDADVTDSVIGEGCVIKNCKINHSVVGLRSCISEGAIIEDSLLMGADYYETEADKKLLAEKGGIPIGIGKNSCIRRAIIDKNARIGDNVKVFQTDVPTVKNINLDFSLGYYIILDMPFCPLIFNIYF
As to the kind of experiment: Apparent kinetic constants with 3-PGA, 37° C., D161G. Type of assay: biochemical. From the text: (§1) The small and large subunit plasmids of maize endosperm AGPase (pMONcBt2 and pMONcSh2, respectively) (Giroux et al., 1996) were expressed in E. coli AC70R1-504 cells (Iglesias et al., 1993) as previously described (Boehlein et al., 2008).
(§2) An endpoint assay was used to determine the rate of the AGPase reaction by coupling the formation of PPi to a decrease in NADH concentration (Boehlein et al., 2008). […] The Michaelis constants (Km) were obtained by varying one substrate in the presence of saturating concentrations of the second substrate. The activation constants were obtained by varying the activator at fixed levels of both substrates. All reactions were performed at 37° C. and mixes were prewarmed before starting the reaction with enzyme. […] The absorbance at 340 nm was monitored after 30 min and the amount of PPi produced was determined from a standard curve using PPi in complete reaction mixtures lacking AGPase. Blank samples contained complete reaction mixtures without enzyme and the change in absorbance between the blank and the reaction was used to calculate the amount of PPi produced. […]
(§3) The apparent Michaelis constant and maximum velocity of each reaction was calculated from a V vs. S plots using nonlinear regression analysis and the following equation, v=VmaxS/(Km+S), where v is the measured velocity, Vmax is the maximum velocity, S is the substrate concentration. […]

Assay [2] addresses T2, maize endosperm AGPase, large subunit variant RGR (Q96R, D161G, A443R; numbering of SEQ ID NO: 20) (Zea mays, UniProt P55241+Q84PF5, A443R/D161G/Q96R).
T2 sequence (P55241 46-516 A443R/D161G/Q96R): T1 sequence (P55241 46-516 D161G) with Q51R, A398R
T2 sequence (Q84PF5 1-474): T1 sequence (Q84PF5 1-474)
As to the kind of experiment: Apparent kinetic constants with 3-PGA, 37° C., RGR. It counts as biochemical. To be noted: read-out: ATP Km.
Text: as §1, §2, §3

Assay [3] deals with T3, maize endosperm AGPase, evolutionary mutant SH2-E (Zea mays, UniProt P55241+Q84PF5).
T3 construct: data of Boehlein et al., 2013
T3 sequence (P55241 46-516, change not shown, one chain of several): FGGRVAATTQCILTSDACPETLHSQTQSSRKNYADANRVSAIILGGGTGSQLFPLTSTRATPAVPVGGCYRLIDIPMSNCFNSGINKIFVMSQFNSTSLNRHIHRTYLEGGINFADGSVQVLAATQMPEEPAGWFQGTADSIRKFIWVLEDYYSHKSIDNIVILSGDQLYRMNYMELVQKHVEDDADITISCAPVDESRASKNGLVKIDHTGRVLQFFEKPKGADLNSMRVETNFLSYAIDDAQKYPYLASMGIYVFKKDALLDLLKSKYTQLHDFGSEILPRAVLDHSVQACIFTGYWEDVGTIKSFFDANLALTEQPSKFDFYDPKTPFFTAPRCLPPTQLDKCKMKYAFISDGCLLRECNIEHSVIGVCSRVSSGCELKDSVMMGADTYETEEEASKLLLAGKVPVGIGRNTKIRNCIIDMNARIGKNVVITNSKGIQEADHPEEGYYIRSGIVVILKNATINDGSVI
To be noted: cited from earlier work.

Changes are numbered by the printed parent chain. Like-named read-outs stand apart in the source and are kept apart here.

Consider `Nc1ncnc2c1ncn2[C@@H]1O[C@H](COP(=O)(O)OP(=O)(O)OP(=O)(O)O)[C@@H](O)[C@H]1O` [ATP], for which the Michaelis constant (Km) in assay [1] (read-out: ATP Km, with 3-PGA, 37° C.) was 44 µM; in assay [1] (read-out: Km for ATP, in the presence of 3-PGA) it was 40 µM; in assay [2], 62 µM; in assay [3] (read-out: ATP Km, absence of 3-PGA), 2530 µM. In addition, the kcat in assay [3] (absence of 3-PGA) is 67.6 s⁻¹. Moreover, in assay [3] (read-out: Kia (dissociation constant for the E-ATP complex), absence of 3-PGA), the Kd is 5.4 mM.

Usually Km stands for the concentration of substrate that gives half-maximal velocity. The term kcat denotes the number of substrate molecules converted per active site and unit of time at saturation.

These data come from patent US9650616B2, “Methods for increasing grain yield” (University of Florida Research Foundation, Inc., priority 2014, dated 2017).
